Experimental data: patent US20150141336A1, “Pancreatic Peptide Compounds and Use” (Novo Nordisk A/S, priority 2012, published 2015)
Where two headings read alike, the source gives them in different places. Numbered stars: 1 amine (or outer) side, 2 acyl side, 3 side chain; on linkers, the order of the positions; unused ones are H or OH. Side chains are listed from the residue outwards. Peptide text beside a SMILES is read from it. * marks the point of attachment. C18 diacid = O=C(O)CCCCCCCCCCCCCCCCC(=O)*; γGlu = O=C(O)[C@H](CCC(=O)[*:2])N[*:1]; AEEA = NCCOCCOCC(=O)O

Assays:
[1] = Assay (X) determination of effect on body weight in mice on high fat diet; format: in vivo, C57B16J mice; settings: male C57 DIO mice, s.c., 0.3 μmol/kg once daily; FIG. 1
Source text: Additional assays useful to the invention comprise those that can determine the effect of PP peptides on body weight and/or body composition. An exemplary assay is the following which involves utilization of a diet induced obese male […] mouse model for metabolic disease: […] (Taconic, Denmark) on regular diurnal rhythm and with access to a high fat diet (D12492, Research Diet, USA) are used. The mice are weighed on a weekly basis. Mice are received at age 5 weeks and put on high fat diet and housed at 24 degree Celsius in normal daily rhythm. Mice are group housed 10 per cage during an obesity induction period of 14 weeks. Two weeks before study start mice are single housed (two mice per cage with a dividing wall between). […] Body weight for all mice is recorded daily in combination with dosing. […] Data are analysed in Graph Pad Prism. Change of body weight from baseline in male C57 DIO mice (mean±SEM, n=10) after s.c. administration of compound AF (0.03 μmol/kg once daily or 0.1 μmol/kg every other day) or the reference compound human PP(2-36) (0.3 μmol/kg, once daily) was determined using Assay (X). […] Change of body weight (mean±SEM, n=10-12) and change of body weight from baseline (mean±SEM, n=10) in male […] mice on a high fat diet after administration of vehicle, compound BN (1 μmol/kg/day, s.c.) or reference compound 1 (500 nmol/kg/day, pump) was determined using Assay (X).

[2] = human, in vivo; cited from earlier work
[3] = Assay (II) PK i.v. minipig, in vivo half-life; set-up: species or system Göttingen mini-pigs; settings: male, Göttingen, minipig, iv, Half-life minipig, Assay (II)
How it was run: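 Male Göttingen mini-pigs (18–22 kg, n=5) received 6 nmol/kg i.v. via central catheter, formulated in 50 mM K2HPO4, 0.05% tween 80, pH 8.0. EDTA plasma sampled pre-dose to 240 h, quantified by TFC/LC/MS/MS (MRM, range 1-2000 nmol/l); half-life from non-compartmental analysis per animal.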

Row | Structure (SMILES) | half-life [3] [h] | also measured
1 | CC[C@H](C)[C@H](NC(=O)[C@H](Cc1ccc(O)cc1)NC(=O)[C@H](CCCNC(=N)N)NC(=O)[C@H](CCCNC(=N)N)NC(=O)[C@H](CC(C)C)NC(=O)[C@H](CC(=O)O)NC(=O)[C@H](C)NC(=O)[C@H](C)NC(=O)[C@H](Cc1ccc(O)cc1)NC(=O)[C@H](CCC(N)=O)NC(=O)[C@H](C)NC(=O)[C@H](CCSC)NC(=O)[C@H](CCC(N)=O)NC(=O)[C@H](CCC(=O)O)NC(=O)[C@@H]1CCCN1C(=O)[C@@H](NC(=O)[C@H](C)NC(=O)[C@H](CC(N)=O)NC(=O)[C@H](CC(=O)O)NC(=O)CNC(=O)[C@@H]1CCCN1C(=O)[C@H](Cc1ccc(O)cc1)NC(=O)[C@@H](NC(=O)[C@@H]1CCCN1C(=O)[C@H](CCC(=O)O)NC(=O)[C@H](CC(C)C)NC(=O)[C@@H]1CCCN1C(=O)[C@H](C)N)C(C)C)[C@@H](C)O)C(=O)N[C@@H](CC(N)=O)C(=O)N[C@@H](CCSC)C(=O)N[C@@H](CC(C)C)C(=O)N[C@H](C(=O)N[C@@H](CCCNC(=N)N)C(=O)N1CCC[C@H]1C(=O)N[C@@H](CCCNC(=N)N)C(=O)N[C@@H](Cc1ccc(O)cc1)C(N)=O)[C@@H](C)O [PP(2-36)] | – | Change of body weight from baseline [1]: reduction in body weight
2 | CC[C@H](C)[C@H](NC(=O)[C@H](Cc1ccc(O)cc1)NC(=O)[C@H](CCCNC(=N)N)NC(=O)[C@H](CCCNC(=N)N)NC(=O)[C@H](CC(C)C)NC(=O)[C@H](CC(=O)O)NC(=O)[C@H](C)NC(=O)[C@H](C)NC(=O)[C@H](Cc1ccc(O)cc1)NC(=O)[C@H](CCC(N)=O)NC(=O)[C@H](C)NC(=O)[C@H](CCSC)NC(=O)[C@H](CCC(N)=O)NC(=O)[C@H](CCC(=O)O)NC(=O)[C@@H]1CCCN1C(=O)[C@@H](NC(=O)[C@H](C)NC(=O)[C@H](CC(N)=O)NC(=O)[C@H](CC(=O)O)NC(=O)CNC(=O)[C@@H]1CCCN1C(=O)[C@H](Cc1ccc(O)cc1)NC(=O)[C@@H](NC(=O)[C@@H]1CCCN1C(=O)[C@H](CCC(=O)O)NC(=O)[C@H](CC(C)C)NC(=O)[C@@H]1CCCN1C(=O)[C@H](C)N)C(C)C)[C@@H](C)O)C(=O)N[C@@H](CC(N)=O)C(=O)N[C@@H](CCSC)C(=O)N[C@@H](CC(C)C)C(=O)N[C@H](C(=O)N[C@@H](CCCNC(=N)N)C(=O)N1CCC[C@H]1C(=O)N[C@@H](CCCNC(=N)N)C(=O)N[C@@H](Cc1ccc(O)cc1)C(N)=O)[C@@H](C)O [PP] | – | half-life [2]: approximately 10 minutes
3 | CC[C@H](C)[C@H](NC(=O)[C@H](Cc1ccc(O)cc1)NC(=O)[C@H](CCCNC(=N)N)NC(=O)[C@H](CCCNC(=N)N)NC(=O)[C@H](CC(C)C)NC(=O)[C@H](CC(=O)O)NC(=O)[C@H](C)NC(=O)[C@H](C)NC(=O)[C@H](Cc1ccc(O)cc1)NC(=O)[C@H](CCC(N)=O)NC(=O)[C@H](C)NC(=O)[C@H](CCSC)NC(=O)[C@H](CCC(N)=O)NC(=O)[C@H](CCC(=O)O)NC(=O)[C@@H]1CCCN1C(=O)[C@@H](NC(=O)[C@H](C)NC(=O)[C@H](CC(N)=O)NC(=O)[C@H](CC(=O)O)NC(=O)CNC(=O)[C@@H]1CCCN1C(=O)[C@H](Cc1ccc(O)cc1)NC(=O)[C@@H](NC(=O)[C@@H]1CCCN1C(=O)[C@H](CCC(=O)O)NC(=O)[C@H](CC(C)C)NC(=O)[C@@H]1CCCN1)C(C)C)[C@@H](C)O)C(=O)N[C@@H](CC(N)=O)C(=O)N[C@@H](CCSC)C(=O)N[C@@H](CC(C)C)C(=O)N[C@@H](CCCCNC(=O)COCCOCCNC(=O)COCCOCCNC(=O)CC[C@H](NC(=O)CCCCCCCCCCCCCCCCC(=O)O)C(=O)O)C(=O)N[C@@H](CCCNC(=N)N)C(=O)N1CCC[C@H]1C(=O)N[C@@H](CCCNC(=N)N)C(=O)N[C@@H](Cc1ccc(O)cc1)C(N)=O [Compound B] (H-PLEPVYPGDNATPEQMAQYAADLRRYINMLK([AEEA-AEEA-γGlu-C18 diacid])RPRY-NH2; N-terminus and C-terminus assumed) | 93 | –
4 | CC[C@H](C)[C@H](NC(=O)[C@H](Cc1ccc(O)cc1)NC(=O)[C@H](CCCNC(=N)N)NC(=O)[C@H](CCCNC(=N)N)NC(=O)[C@H](CC(C)C)NC(=O)[C@H](CC(=O)O)NC(=O)[C@H](C)NC(=O)[C@H](C)NC(=O)[C@H](Cc1ccc(O)cc1)NC(=O)[C@H](CCC(N)=O)NC(=O)[C@H](C)NC(=O)[C@H](CCSC)NC(=O)[C@H](CCC(N)=O)NC(=O)[C@H](CCC(=O)O)NC(=O)[C@@H]1CCCN1C(=O)[C@@H](NC(=O)[C@H](C)NC(=O)[C@H](CC(N)=O)NC(=O)[C@H](CC(=O)O)NC(=O)CNC(=O)[C@@H]1CCCN1C(=O)[C@H](Cc1ccc(O)cc1)NC(=O)[C@@H](NC(=O)[C@H](CCCCNC(=O)COCCOCCNC(=O)COCCOCCNC(=O)CC[C@H](NC(=O)CCCCCCCCCCCCCCCCC(=O)O)C(=O)O)NC(=O)[C@H](CCC(=O)O)NC(=O)[C@H](CC(C)C)NC(=O)[C@@H]1CCCN1)C(C)C)[C@@H](C)O)C(=O)N[C@@H](CC(N)=O)C(=O)N[C@@H](CCSC)C(=O)N[C@@H](CC(C)C)C(=O)N[C@H](C(=O)N[C@@H](CCCNC(=N)N)C(=O)N1CCC[C@H]1C(=O)N[C@@H](CCCNC(=N)N)C(=O)N[C@@H](Cc1ccc(O)cc1)C(N)=O)[C@@H](C)O [Compound AC] | 11 | –
5 | CC[C@H](C)[C@H](NC(=O)[C@H](Cc1ccc(O)cc1)NC(=O)[C@H](CCCNC(=N)N)NC(=O)[C@H](CCCNC(=N)N)NC(=O)[C@H](CC(C)C)NC(=O)[C@H](CC(=O)O)NC(=O)[C@H](C)NC(=O)[C@H](C)NC(=O)[C@H](Cc1ccc(O)cc1)NC(=O)[C@H](CCC(N)=O)NC(=O)[C@H](C)NC(=O)[C@H](CCSC)NC(=O)[C@H](CCC(N)=O)NC(=O)[C@H](CCC(=O)O)NC(=O)[C@@H]1CCCN1C(=O)[C@@H](NC(=O)[C@H](C)NC(=O)[C@H](CC(N)=O)NC(=O)[C@H](CC(=O)O)NC(=O)CNC(=O)[C@@H]1CCCN1C(=O)[C@H](Cc1ccc(O)cc1)NC(=O)[C@@H](NC(=O)[C@@H]1CCCN1C(=O)[C@H](CCC(=O)O)NC(=O)[C@H](CC(C)C)NC(=O)[C@@H]1CCCN1)C(C)C)[C@@H](C)O)C(=O)N[C@@H](CC(N)=O)C(=O)N[C@@H](CCSC)C(=O)N[C@@H](CC(C)C)C(=O)N[C@H](C(=O)N[C@@H](CCCNC(=N)N)C(=O)N[C@@H](CCCCNC(=O)COCCOCCNC(=O)COCCOCCNC(=O)CC[C@H](NC(=O)CCCCCCCCCCCCCCCCC(=O)O)C(=O)O)C(=O)N[C@@H](CCCNC(=N)N)C(=O)N[C@@H](Cc1ccc(O)cc1)C(N)=O)[C@@H](C)O [Compound A] (H-PLEPVYPGDNATPEQMAQYAADLRRYINMLTRK([AEEA-AEEA-γGlu-C18 diacid])RY-NH2; N-terminus and C-terminus assumed) | 99 | –
6 | CC[C@H](C)[C@H](NC(=O)[C@H](Cc1ccc(O)cc1)NC(=O)[C@H](CCCNC(=N)N)NC(=O)[C@H](CCCNC(=N)N)NC(=O)[C@H](CC(C)C)NC(=O)[C@H](CC(=O)O)NC(=O)[C@H](C)NC(=O)[C@H](C)NC(=O)[C@H](Cc1ccc(O)cc1)NC(=O)[C@H](CCC(N)=O)NC(=O)[C@H](C)NC(=O)[C@H](CCSC)NC(=O)[C@H](CCC(N)=O)NC(=O)[C@H](CCC(=O)O)NC(=O)[C@H](CCCCNC(=O)COCCOCCNC(=O)COCCOCCNC(=O)CC[C@H](NC(=O)CCCCCCCCCCCCCCCCC(=O)O)C(=O)O)NC(=O)[C@@H](NC(=O)[C@H](C)NC(=O)[C@H](CC(N)=O)NC(=O)[C@H](CC(=O)O)NC(=O)CNC(=O)[C@@H]1CCCN1C(=O)[C@H](Cc1ccc(O)cc1)NC(=O)[C@@H](NC(=O)[C@@H]1CCCN1C(=O)[C@H](CCC(=O)O)NC(=O)[C@@H](N)CC(C)C)C(C)C)[C@@H](C)O)C(=O)N[C@@H](CC(N)=O)C(=O)N[C@@H](CCSC)C(=O)N[C@@H](CC(C)C)C(=O)N[C@H](C(=O)N[C@@H](CCCNC(=N)N)C(=O)N1CCC[C@H]1C(=O)N[C@@H](CCCNC(=N)N)C(=O)N[C@@H](Cc1ccc(O)cc1)C(N)=O)[C@@H](C)O [Compound BB] (H-LEPVYPGDNATK([AEEA-AEEA-γGlu-C18 diacid])EQMAQYAADLRRYINMLTRPRY-NH2; N-terminus and C-terminus assumed) | 19 | –
